# Measurements from BindingDB's records for doi:10.1021/jm980637h (Japan Energy, 1999).
# Target: T1, Dimer of Gag-Pol polyprotein [489-587] (Human immunodeficiency virus 1, UniProt P12497)
# T1 construct: 489-587
# Test: Protease Inhibition Assay
# Details: pH 6; 37 °C
# Method: Sensitivity of HIV-1 protease activity to protease inhibitors was determined by a peptide substrate cleavage assay. Substrates and cleavage fragments were separated by reverse-phase HPLC, detected by absorbance at 215 nm, and quantified by comparison with a synthetic product standard.
row,Compound,Ki
1,CSC[C@H](NC(=O)COc1cccc2cnccc12)C(=O)N[C@@H](Cc1ccccc1)[C@H](O)C(=O)N1CSC(C)(C)[C@H]1C(=O)NC(C)(C)C,88 pM
2,"CCc1c(O)cccc1C(=O)N[C@@H](Cc1ccccc1)[C@H](O)C(=O)N1CSC(C)(C)[C@H]1C(=O)NCc1ccccc1C [(R)-N-(2-Methylbenzyl)-3-[(2S,3S)-3-(2-ethyl-3-hydroxybenzoyl)amino-2-hydroxy-4-phenylbutanoyl]-5,5-methyl-1,3-thiazolidine-4-carboxamide]",160 pM
3,CSC[C@H](NC(=O)COc1cccc2cnccc12)C(=O)N[C@@H](Cc1ccccc1)[C@H](O)C(=O)N1CSC[C@H]1C(=O)NC(C)(C)C [Kynostatin 272],740 pM
